Assay results as given in the supplement of paper PMC10307832.

Key:
Assay in all cases: relative viability (nuclei count vs DMSO), 5 days (fraction); higher = more cells survive
Pazopanib + OSI-027 = compound: Cc1ccc(Nc2nccc(N(C)c3ccc4c(C)n(C)nc4c3)n2)cc1S(N)(=O)=O [Pazopanib] + COc1cccc2cc(-c3nc([C@H]4CC[C@H](C(=O)O)CC4)n4ncnc(N)c34)[nH]c12 [OSI-027] (partner 0.5 µM)
How it was run: (§1)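 Lung cancer cell lines in 1536-well plates were dosed by pin tool the day after seeding, either with one drug alone or with a fixed anchor-drug dose plus five library-drug doses (not always all listed) in √10 steps. After 5 days, cells were fixed and their nuclei stained in one step (final 0.05% Triton X-100, 1% formaldehyde, 1 ug/ml Hoechst), then counted on 4× images. Relative viability is the nuclei count in treated wells divided by that in vehicle wells. Values are medians of duplicate plates.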

Ponatinib + Decitabine = compound: Cc1ccc(C(=O)Nc2ccc(CN3CCN(C)CC3)c(C(F)(F)F)c2)cc1C#Cc1cnc2cccnn12 [Ponatinib] + Nc1ncn([C@H]2C[C@H](O)[C@@H](CO)O2)c(=O)n1 [Decitabine] (partner 2 µM)
How it was run: as §1

Ponatinib + Crizotinib = compound: Cc1ccc(C(=O)Nc2ccc(CN3CCN(C)CC3)c(C(F)(F)F)c2)cc1C#Cc1cnc2cccnn12 [Ponatinib] + C[C@@H](Oc1cc(-c2cnn(C3CCNCC3)c2)cnc1N)c1c(Cl)ccc(F)c1Cl [Crizotinib] (partner 1 µM)
How it was run: as §1

Ponatinib + OSI-027 = compound: Cc1ccc(C(=O)Nc2ccc(CN3CCN(C)CC3)c(C(F)(F)F)c2)cc1C#Cc1cnc2cccnn12 [Ponatinib] + COc1cccc2cc(-c3nc([C@H]4CC[C@H](C(=O)O)CC4)n4ncnc(N)c34)[nH]c12 [OSI-027] (partner 0.5 µM)
How it was run: as §1

| Cell Line | relative viability (Pazopanib + OSI-027; first compound 0.01 µM) | relative viability (Pazopanib + OSI-027; first compound 0.03162 µM) | relative viability (Pazopanib + OSI-027; first compound 0.1 µM) | relative viability (Pazopanib + OSI-027; first compound 0.3162 µM) | relative viability (Pazopanib + OSI-027; first compound 1 µM) | relative viability (Ponatinib + Decitabine; first compound 0.002 µM) | relative viability (Ponatinib + Decitabine; first compound 0.006325 µM) | relative viability (Ponatinib + Decitabine; first compound 0.06325 µM) | relative viability (Ponatinib + Decitabine; first compound 0.2 µM) | relative viability (Ponatinib + Crizotinib; first compound 0.002 µM) | relative viability (Ponatinib + Crizotinib; first compound 0.006325 µM) | relative viability (Ponatinib + Crizotinib; first compound 0.06325 µM) | relative viability (Ponatinib + Crizotinib; first compound 0.2 µM) | relative viability (Ponatinib + OSI-027; first compound 0.002 µM) | relative viability (Ponatinib + OSI-027; first compound 0.006325 µM) | relative viability (Ponatinib + OSI-027; first compound 0.06325 µM) | relative viability (Ponatinib + OSI-027; first compound 0.2 µM) |
| --- | --- | --- | --- | --- | --- | --- | --- | --- | --- | --- | --- | --- | --- | --- | --- | --- | --- |
| NCI-H661 | 0.669 | 0.784 | 0.745 | 0.689 | 0.735 | 0.524 | 0.537 | 0.562 | 0.515 | 1.02 | 1.04 | 0.99 | 1.13 | 0.669 | 0.707 | 0.763 | 0.666 |
| NCI-H1666 | 0.86 | 0.953 | 0.882 | 0.866 | 0.948 | 0.752 | 0.745 | 0.812 | 0.766 | 0.951 | 0.978 | 1.06 | 0.989 | 0.727 | 0.762 | 0.872 | 0.79 |
| NCI-H2085 | 0.817 | 0.782 | 0.752 | 0.719 | 0.787 | 0.541 | 0.58 | 0.613 | 0.565 | 0.837 | 0.704 | 0.939 | 0.842 | 0.624 | 0.704 | 0.753 | 0.727 |
| NCI-H1734 | 0.56 | 0.555 | 0.558 | 0.567 | 0.605 | 0.477 | 0.459 | 0.524 | 0.429 | 0.638 | 0.657 | 0.647 | 0.577 | 0.58 | 0.589 | 0.521 | 0.449 |
| NCI-H2126 | 0.643 | 0.612 | 0.68 | 0.718 | 0.719 | 0.587 | 0.585 | 0.667 | 0.545 | 0.97 | 1.02 | 1.1 | 1.03 | 0.779 | 0.818 | 0.845 | 0.563 |
| EMC-BAC-2 |  | 0.424 | 0.394 | 0.404 | 0.399 | 0.927 | 0.899 | 1.04 | 0.842 | 0.708 | 0.661 | 0.747 | 0.727 | 0.368 | 0.376 | 0.39 | 0.368 |
| NCI-H1993 |  | 0.603 | 0.599 | 0.479 | 0.461 | 0.549 | 0.583 | 0.671 | 0.61 | 0.796 | 1.01 | 1.01 | 1 | 0.516 | 0.495 | 0.469 | 0.567 |
| NCI-H596 |  | 0.74 | 0.568 | 0.879 | 0.632 | 0.925 | 0.999 | 0.984 | 1 | 0.905 | 0.891 | 0.917 | 0.843 | 0.653 | 0.619 | 0.516 | 0.392 |
| NCI-H650 | 0.464 | 0.523 | 0.517 | 0.544 | 0.482 | 0.296 | 0.319 | 0.341 | 0.299 | 0.598 | 0.663 | 0.695 | 0.605 | 0.378 | 0.49 | 0.456 | 0.466 |
| NCI-H1792 |  | 0.714 | 0.702 | 0.746 | 0.673 | 0.476 | 0.488 | 0.516 | 0.495 | 0.956 | 0.988 | 1.1 | 0.976 | 0.621 | 0.747 | 0.841 | 0.586 |
| SW 1573 | 0.566 | 0.728 | 0.684 | 0.715 | 0.765 | 0.463 | 0.458 | 0.695 | 0.46 | 0.707 | 0.876 | 0.887 | 0.608 | 0.567 | 0.483 | 0.718 | 0.522 |
| ChaGo-K-1 | 0.528 | 0.504 | 0.541 | 0.498 | 0.581 | 0.517 | 0.507 | 0.54 | 0.512 | 1.12 | 1.16 | 1.08 | 0.95 | 0.465 | 0.594 | 0.571 | 0.493 |
| NCI-H1650 | 0.727 | 0.759 | 0.744 | 0.803 | 0.699 | 0.328 | 0.653 | 0.449 | 0.324 | 1.03 | 0.939 | 1.17 | 0.821 | 0.611 | 0.66 | 0.748 | 0.568 |
| NCI-H2009 | 0.576 | 0.622 | 0.566 | 0.56 | 0.44 | 0.399 | 0.343 | 0.354 | 0.372 | 1.04 | 0.975 | 1.11 | 1.02 | 0.486 | 0.496 | 0.759 | 0.545 |
| LOU-NH91 | 0.701 | 0.753 | 0.719 | 0.781 | 0.728 | 0.778 | 0.788 | 0.868 | 0.766 | 0.709 | 0.777 | 0.758 | 0.731 | 0.675 | 0.762 | 0.746 | 0.741 |
| NCI-H3122 | 0.985 | 0.958 | 1.02 | 1.05 | 1.26 | 0.457 | 0.545 | 0.472 | 0.411 | 0.267 | 0.278 | 0.315 | 0.366 | 1 | 0.988 | 1.02 | 0.834 |
| LCLC-97TM1 | 0.5 | 0.601 | 0.523 | 0.528 | 0.513 | 0.205 | 0.242 | 0.214 | 0.248 |  | 0.369 |  | 0.413 | 0.448 | 0.561 | 0.606 | 0.28 |
| NCI-H647 | 0.594 | 0.688 | 0.723 | 0.902 | 0.739 | 0.319 | 0.369 | 0.429 | 0.407 | 0.851 | 1.07 | 1.12 | 0.989 | 0.565 | 0.716 | 0.69 | 0.502 |
